# Biological target: human TPH1 (Homo sapiens (Human), UniProt P17752)
# Experiment: Biochemical in vitro assay using fluorescence readout (TPH1 inhibition)
# Settings: full length human TPH1, 40 μM L-tryptophan, 15° C., 60 minutes, fluorescence at 540 nm; mean if determined several times
# Text: Biochemical In Vitro Assay Using Fluorescence Readout
# To generate the enzyme, full length human TPH1 is cloned into the plasmid pET20b(+) (Novagen) and expressed in E. coli. The bacterial cells are ruptured by sonication on ice and the lysate is cleared by centrifugation. The resulting protein in the pellet is re-extracted and TPH1 is purified from the obtained lysate by affinity chromatography using a pterin cosubstrate analog immobilized to the resin of the column. The protein is further purified by size exclusion chromatography to remove protein aggregates. The activity of TPH1 is determined by using a fluorescence assay. The enzyme activity assay is carried out at 15° C. with atmosphere oxygen for the duration of 60 minutes in a volume of 64 μl. The reaction is carried out in a 0.1 M Tris-HCl buffer, adjusted to pH 7.6, containing 1 mM DTT, 0.2 mg/mL catalase, 100 μM (±)-6-methyl-5,6,7,8-tetrahydropterine dihydrochloride, 40 μM L-tryptophan, and 40-80 nM of TPH1. The reaction is started by bringing together L-tryptophan with all the other reaction substituents and stopped by quenching with perchloric acid (HClO4). The amount of 5-hydroxy-L-tryptophan produced during the enzymatic reaction is determined by fluorescence readout. Fluorescence, as determined at 540 nm when excited at 300 nm wavelength, increases proportionally to the 5-hydroxy-L-tryptophan formed. Compounds are prepared as 10 mM stock solution in DMSO, then diluted in 384-well plates using DMSO followed by a transfer of the dilutions into the assay plate. Fluorescence is measured for each well and the fluorescence at 540 nm wavelength is compared to the fluorescence of the vehicle in place of compound. Inhibitory activities of example compounds with respect to the TPH1 protein are determined by calculating the IC50 value (the concentration of compound needed to inhibit 50% of the enzyme activity). The calculated IC50 values may fluctuate depending on the daily biochemical assay performance. Fluctuations of this kind are known to those skilled in the art.
# Chain of human TPH1 (P17752 whole entry): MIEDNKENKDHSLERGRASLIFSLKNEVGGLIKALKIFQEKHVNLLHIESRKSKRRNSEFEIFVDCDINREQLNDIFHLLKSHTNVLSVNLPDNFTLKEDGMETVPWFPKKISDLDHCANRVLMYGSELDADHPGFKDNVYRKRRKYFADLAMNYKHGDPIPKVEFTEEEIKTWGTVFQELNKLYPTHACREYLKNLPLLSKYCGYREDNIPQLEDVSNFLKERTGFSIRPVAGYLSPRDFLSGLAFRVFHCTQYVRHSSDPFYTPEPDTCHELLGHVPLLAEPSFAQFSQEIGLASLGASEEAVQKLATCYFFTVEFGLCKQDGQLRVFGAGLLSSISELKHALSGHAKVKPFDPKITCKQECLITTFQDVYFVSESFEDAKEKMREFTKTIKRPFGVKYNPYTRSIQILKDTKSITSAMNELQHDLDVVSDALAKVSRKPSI
row,SMILES,IC50 [nM]
1,"Cc1nn2c3c(nc2s1)CCN(C(=O)COc1ccc(NS(C)(=O)=O)nc1Cl)C3c1ncc(C(=O)N(C)C)s1 (stereo not shown) [Example 1.37.3, 2-(6-(2-((2-Chloro-6-(methylsulfonamido)pyridin-3-yl)oxy)acetyl)-2-methyl-5,6,7,8-tetrahydro-[1,3,4]thiadiazolo[2′,3′:2,3]imidazo[4,5-c]pyridin-5-yl)-N,N-dimethylthiazole-5-carboxamide]",40
2,"Cc1nn2c3c(nc2s1)CCN(C(=O)COc1ccc(N2CCOCC2)nc1Cl)C3c1ncc(C(=O)N(C)C)s1 (stereo not shown) [Example 1.37.5, 2-(6-(2-((2-Chloro-6-morpholinopyridin-3-yl)oxy)acetyl)-2-methyl-5,6,7,8-tetrahydro-[1,3,4]thiadiazolo[2′,3′:2,3]imidazo[4,5-c]pyridin-5-yl)-N,N-dimethylthiazole-5-carboxamide]",9
3,"Cc1nn2c3c(nc2s1)CCN(C(=O)COc1ccc(N2CCC(F)(F)CC2)nc1Cl)C3c1ccc(Cl)cc1F (stereo not shown) [Example 1.4.32, 1-(5-(4-Chloro-2-fluorophenyl)-2-methyl-7,8-dihydro-[1,3,4]thiadiazolo[2′,3′:2,3]imidazo[4,5-c]pyridin-6(5H)-yl)-2-((2-chloro-6-(4,4-difluoropiperidin-1-yl)pyridin-3-yl)oxy)ethanone]",3
4,"Cc1nn2c3c(nc2s1)CCN(C(=O)COc1ccc(N2CC(F)(F)C2)nc1Cl)C3c1cc(C(=O)N(C)C)cs1 (stereo not shown) [Example 1.9.2, 5-(6-(2-((2-Chloro-6-(3,3-difluoroazetidin-1-yl)pyridin-3-yl)oxy)acetyl)-2-methyl-5,6,7,8-tetrahydro-[1,3,4]thiadiazolo[2′,3′:2,3]imidazo[4,5-c]pyridin-5-yl)-N,N-dimethylthiophene-3-carboxamide]",32
5,"Cc1nn2c3c(nc2s1)CCN(C(=O)COc1ccc(C(=O)NC2CC2)nc1Cl)C3c1ccc(OCCO)cc1F (stereo not shown) [Example 1.84.1, 6-chloro-N-cyclopropyl-5-(2-(5-(2-fluoro-4-(2-hydroxyethoxy)phenyl)-2-methyl-7,8-dihydro-[1,3,4]thiadiazolo[2′,3′:2,3]imidazo[4,5-c]pyridin-6(5H)-yl)-2-oxoethoxy)picolinamide]",14

# Same assay, conditions: human TPH1, fluorescence readout
row,SMILES,IC50 [nM]
1,"CCc1nc(NS(C)(=O)=O)ccc1OCC(=O)N1CCc2nc3sc(C)nn3c2C1c1cc(F)c(C)cc1F (stereo not shown) [Example 1.74.1, N-(5-(2-(5-(2,5-difluoro-4-methylphenyl)-2-methyl-7,8-dihydro-[1,3,4]thiadiazolo[2′,3′:2,3]imidazo[4,5-c]pyridin-6(5H)-yl)-2-oxoethoxy)-6-ethylpyridin-2-yl)methanesulfonamide]",25
2,"Cc1ccccc1OCC(=O)N1CCc2nc3sccn3c2C1c1cnn(-c2ccccc2)c1 (stereo not shown) [Example 6.13.4, 1-(5-(1-phenyl-1H-pyrazol-4-yl)-7,8-dihydrothiazolo-[2′,3′:2,3]imidazo[4,5-c]pyridin-6(5H)-yl)-2-(o-tolyl-oxy)ethanone]",236
3,"Cc1nn2c3c(nc2s1)CCN(C(=O)COc1ccc(N2CCOCC2)nc1Cl)C3c1c(C)noc1C (stereo not shown) [Example 1.5.2, 2-((2-chloro-6-morpholinopyridin-3-yl)oxy)-1-(5-(3,5-dimethylisoxazol-4-yl)-2-methyl-7,8-dihydro-[1,3,4]thiadiazolo[2′,3′:2,3]imidazo[4,5-c]pyridin-6(5H)-yl)ethanone]",9
4,"Cc1nn2c3c(nc2s1)CCN(C(=O)COc1ccc(C(F)(F)F)nc1Cl)C3c1ccc(Cl)nc1F (stereo not shown) [Example 1.16.4, 1-(5-(6-chloro-2-fluoropyridin-3-yl)-2-methyl-7,8-dihydro-[1,3,4]thiadiazolo[2′,3′:2,3]imidazo[4,5-c]pyridin-6(5H)-yl)-2-((2-chloro-6-(trifluoromethyl)pyridin-3-yl)oxy)ethanone]",27
5,"O=C(COc1cccnc1Cl)N1CCc2nc3sccn3c2C1c1nc2ccccc2s1 (stereo not shown) [Example 6.12.6, 1-(5-(benzo[d]thiazol-2-yl)-7,8-dihydrothiazolo-[2′,3′:2,3]imidazo[4,5-c]pyridin-6(5H)-yl)-2-((2-chloropyridin-3-yl)oxy)ethanone]",101
6,"Cc1nn2c3c(nc2s1)CCN(C(=O)COc1cccnc1F)C3c1ccc(C2CC2)cc1F (stereo not shown) [Example 1.6.5, 1-(5-(4-cyclopropyl-2-fluorophenyl)-2-methyl-7,8-dihydro-[1,3,4]thiadiazolo[2′,3′:2,3]imidazo[4,5-c]pyridin-6(5H)-yl)-2-((2-fluoropyridin-3-yl)oxy)ethanone]",89
7,"CCc1nc(NS(C)(=O)=O)ccc1OCC(=O)N1CCc2nc3sc(C)nn3c2C1c1sc(C)nc1C (stereo not shown) [Example 1.68.7, N-(5-(2-(5-(2,4-dimethylthiazol-5-yl)-2-methyl-7,8-dihydro-[1,3,4]thiadiazolo[2′,3′:2,3]imidazo[4,5-c]-pyridin-6(5H)-yl)-2-oxoethoxy)-6-ethylpyridin-2-yl)methanesulfonamide]",11
8,"Cc1nn2c3c(nc2s1)CCN(C(=O)COc1ccc(C(F)(F)F)nc1Cl)C3c1scnc1C (stereo not shown) [Example 1.32.4, 2-((2-chloro-6-(trifluoromethyl)pyridin-3-yl)oxy)-1-(2-methyl-5-(4-methylthiazol-5-yl)-7,8-dihydro-[1,3,4]thiadiazolo [2′,3′:2,3]imidazo[4,5-c]pyridin-6(5H)-yl)ethanone]",21
9,"Cc1nn2c3c(nc2s1)CCN(C(=O)COc1ccc(S(=O)(=O)N(C)C)nc1Cl)C3c1ccc(Cl)cc1F (stereo not shown) [Example 1.4.61, 6-chloro-5-(2-(5-(4-chloro-2-fluorophenyl)-2-methyl-7,8-dihydro-[1,3,4]thiadiazolo[2′,3′:2,3]imidazo[4,5-c]pyridin-6(5H)-yl)-2-oxoethoxy)-N,N-dimethylpyridine-2-sulfonamide]",37
10,"Cc1noc(C)c1C1c2c(nc3sccn23)CCN1C(=O)COc1ccc(Cl)cc1Cl (stereo not shown) [Example 6.5.2, 2-(2,4-dichlorophenoxy)-1-(5-(3,5-dimethylisoxazol-4-yl)-7,8-dihydrothiazolo[2′,3′:2,3]imidazo[4,5-c]pyridin-6(5H)-yl)ethanone]",61
11,"CCc1nc(NS(C)(=O)=O)ccc1OCC(=O)N1CCc2nc3sc(C(F)F)nn3c2C1c1ccc(Cl)cc1F (stereo not shown) [Example 8.1.2, N-(5-(2-(5-(4-chloro-2-fluorophenyl)-2-(difluoromethyl)-7,8-dihydro-[1,3,4]thiadiazolo[2′,3′:2,3]imidazo[4,5-c]pyridin-6(5H)-yl)-2-oxoethoxy)-6-ethylpyridin-2-yl)methanesulfonamide]",10
12,"CCc1nc(C)ccc1OC1(C(=O)N2CCc3nc4sc(C)nn4c3C2c2ccc(C3CC3)cc2F)CC1 (stereo not shown) [Example 1.6.18, (5-(4-cyclopropyl-2-fluorophenyl)-2-methyl-7,8-dihydro-[1,3,4]thiadiazolo[2′,3′:2,3]imidazo[4,5-c]pyridin-6(5H)-yl)(1-((2-ethyl-6-methylpyridin-3-yl)oxy)cyclopropyl)methanone]",186
13,"Cc1nn2c3c(nc2s1)CCN(C(=O)C(C)(C)Oc1ccc(NS(C)(=O)=O)nc1Cl)C3c1ccc(Cl)cc1F (stereo not shown) [Example 1.4.56, N-(6-chloro-5-((1-(5-(4-chloro-2-fluorophenyl)-2-methyl-7,8-dihydro-[1,3,4]thiadiazolo[2′,3′:2,3]imidazo[4,5-c]pyridin-6(5H)-yl)-2-methyl-1-oxopropan-2-yl)oxy)pyridin-2-yl)methanesulfonamide]",567
14,"Cc1nn2c3c(nc2s1)CCN(C(=O)C1(Oc2ccc(C(=O)N(C)C)nc2Cl)CC1)C3c1ccc(Cl)cc1F (stereo not shown) [Example 1.4.57, 6-chloro-5-(1-(5-(4-chloro-2-fluorophenyl)-2-methyl-5,6,7,8-tetrahydro-[1,3,4]thiadiazolo[2′,3′:2,3]imidazo[4,5-c]pyridine-6-carbonyl)cyclopropoxy)-N,N-dimethylpicolinamide]",39
15,"Cc1cnc([C@H]2c3c(nc4sc(C)nn34)CCN2C(=O)COc2ccc(C3(N(C)C)CC3)nc2Cl)c(F)c1 [Example 1.31.12, (R)-2-((2-chloro-6-(1-(dimethylamino)cyclopropyl)pyridin-3-yl)oxy)-1-(5-(3-fluoro-5-methylpyridin-2-yl)-2-methyl-7,8-dihydro-[1,3,4]thiadiazolo[2′,3′:2,3]imidazo[4,5-c]pyridin-6(5H)-yl)ethanone]",217
16,"COc1ccc(C2c3c(nc4sc(C)nn34)CCN2C(=O)COc2ccc(C(=O)NC3CC3)nc2Cl)c(F)c1 (stereo not shown) [Example 1.3.3, 6-chloro-N-cyclopropyl-5-(2-(5-(2-fluoro-4-methoxyphenyl)-2-methyl-7,8-dihydro-[1,3,4]thiadiazolo[2′,3′:2,3]imidazo[4,5-c]pyridin-6(5H)-yl)-2-oxoethoxy)picolinamide]",10
17,"COCc1ccc(C2c3c(nc4sc(C)nn34)CCN2C(=O)COc2ccc(C(=O)NC3CC3)nc2Cl)c(F)c1 (stereo not shown) [Example 1.82.2, 6-chloro-N-cyclopropyl-5-(2-(5-(2-fluoro-4-(methoxymethyl)phenyl)-2-methyl-7,8-dihydro-[1,3,4]thiadiazolo[2′,3′:2,3]imidazo[4,5-c]pyridin-6(5H)-yl)-2-oxoethoxy)picolinamide]",14

# Reference: patent publication US9765092B2, “Tricyclic piperidine compounds” (ACTELION PHARMACEUTICALS LTD, priority 2013, dated 2017)
